Broadly, the viability is the share of living cells, or the viability signal relative to a control. Higher therefore signals better survival.

This note sets out measurements from patent US5545399A, “Cosmetic composition” (Chesebrough-Pond's USA Co., priority 1993, dated 1996).

Each structure is given as a SMILES string. Like-named read-outs stand apart in the source and are kept apart here.

Series [1] deals with Pigment producing cells derived from a mammalian melanoma. Put plainly: In vitro melanocyte cell culture: melanin production (absorbance at 540 nm of melanin released into the medium). The class given is cell-based. The following applies: for activity at 300 µM: dihydrophloretin 0.3 mM; for activity at 100 µM: dihydrophloretin 0.1 mM; for activity at 230 µM: dihydrophloretin 0.23 mM; for melanin production as percentage of control / % pigmentation: 5760 min. The procedure:
Test method--In vitro melanocyte cell culture Pigment producing cells derived from a mammalian melanoma are grown in culture by standard methods. Preferred cell lines are B16 or S-91 cells, but other lines or primary mouse or human melanocytes can be used. Melanoma cells are grown in cell culture medium such as RPMI 1640 (GIBCO) supplemented with fetal calf serum and glutamine to approximately 1/3 confluence. The active is dissolved in culture medium, the pH adjusted as required and sterile filtered. The solution is then added to the cells. The cells are cultured for a further period of 4 days and the amount of melanin produced assayed by measuring the absorbance at 540 nm of the melanin released into the medium. The above procedure was used to assess the ability of compositions of (a) dihydrophloretin alone and (b) dihydrophloretin plus retinol to reduce the amount of melanin produced.

In a further series the test system is Melanoma cells. Put plainly: in vitro. The class given is cell-based, mammalian. How it is done: (§1) Pigment producing cells derived from a mammalian melanoma are grown in culture by standard methods. Preferred cell lines are B16 or S-91 cells, but other lines or primary mouse or human melanocytes can be used.
(§2) Melanoma cells are grown in cell culture medium such as RPMI 1640 (GIBCO) supplemented with fetal calf serum and glutamine to approximately 1/3 confluence. The active is dissolved in culture medium, the pH adjusted as required and sterile filtered. The solution is then added to the cells.
(§3) Cell viability in the presence of the inhibitor is tested using neutral red (3-amino-7-dimethylamino-2-methyl phenazine hydrochloride) a water soluble vital dye which passes through the intact plasma membrane and becomes concentrated in lysosomes of viable cells. For any culture, the amount of dye taken up is proportional to the number of viable cells and agents that damage cell and lysosomal membranes inhibit dye incorporation.
(§4) The cells are incubated in 50 μg/ml neutral red solution for 3 hours at 37° C. in 5% CO2 in air. The solution is aspirated, the cells washed once in saline and to them added a solvent (50% H2 O, 49% ethanol, 1% acetic acid) to solubilise the dye. The amount of neutral red dye is quantified by measuring absorbance at 540 nm.
(§5) The above procedure was used to assess the ability of compositions of (a) dihydrophloretin alone and (b) dihydrophloretin plus retinol to reduce the amount of melanin produced.
(§6) The results for melanin production were calculated as percentages of control which contained medium alone. There was no effect on viability at the concentrations of actives reported.

The next series is described as follows: in vitro. It is filed as cell-based, mammalian. The following applies: melanoma cells. How it is done: as §1, §2, §3, §4, §5, §6
Where [2] appears, read: Melanocyte, 96 h, Table 4, trans retinol 0, read-out: melanin production as percentage of control.
[3] abbreviates: Melanocyte, 96 h, Table 5, retinol 0, n 3, read-out: % pigmentation.

For `Oc1ccc(CCC(O)c2c(O)cc(O)cc2O)cc1` (stereo not shown) [Dihydrophloretin, dihydrophloretin], in series [1] (Melanocyte, 96 h, Table 3, dihydrophloretin 0.01 mM, 4 days, read-out: % of control melanin production), the activity at 10 µM worked out at 100%. In addition, in series [1] (Melanocyte, 96 h, Table 3, dihydrophloretin 0.03 mM, 4 days, read-out: % of control melanin production), the activity at 30 µM is 99.8%. For the same compound, the activity at 300 µM stood at 57% in series [1] (Melanocyte, 96 h, Table 3, 4 days, read-out: % of control melanin production); 109% in series [1] (setting [2]); 94% in series [1] (Melanocyte, 96 h, Table 5, retinol 0, n 4, read-out: % pigmentation). Also, the activity at 100 µM in series [1] (setting [2]) stood at 98.1%; in series [1] (setting [3]), 99%. Moreover, the activity at 170 µM in series [1] (Melanocyte, 96 h, Table 4, dihydrophloretin 0.17 mM, trans retinol 0, read-out: melanin production as percentage of control) worked out at 109%. Also, the activity at 230 µM was 109% in series [1] (setting [2]) and 104% in series [1] (setting [3]). Also, the “melanin production as percentage of control” value in series [1] (Table 4, dihydrophloretin 0.1 mM plus trans retinol 2.0 μm) was 120.2 % of control; in series [1] (Table 4, dihydrophloretin 0.1 mM plus trans retinol 6.7 μm, *significantly less (P<0.05) than Control), 82.1 % of control; in series [1] (Table 4, dihydrophloretin 0.17 mM plus trans retinol 2.0 μm) it was 111.0 % of control; in series [1] (Table 4, dihydrophloretin 0.17 mM plus trans retinol 6.7 μm, *significantly less (P<0.05) than Control) it was 76.0 % of control; in series [1] (Table 4, dihydrophloretin 0.23 mM plus trans retinol 2.0 μm), 110.0 % of control; in series [1] (Table 4, dihydrophloretin 0.23 mM plus trans retinol 6.7 μm, *significantly less (P<0.05) than Control), 60.9 % of control. Besides, the “melanin production as percentage of control” value was 104.0 % of control in series [1] (Table 4, dihydrophloretin 0.3 mM plus trans retinol 2.0 μm) and 34.0 % of control in series [1] (Table 4, dihydrophloretin 0.3 mM plus trans retinol 6.7 μm, *significantly less (P<0.05) than Control). The “% pigmentation” value in series [1] (Table 5, dihydrophloretin 0.1 mM plus retinol 2.0 μM, n 1) is on record as 120%; in series [1] (Table 5, dihydrophloretin 0.1 mM plus retinol 6.7 μM, n 2), 86%; in series [1] (Table 5, dihydrophloretin 0.17 mM plus retinol 2.0 μM, n 1), 111%; in series [1] (Table 5, dihydrophloretin 0.17 mM plus retinol 6.7 μM, n 2) it was 73%; in series [1] (Table 5, dihydrophloretin 0.23 mM plus retinol 2.0 μM, n 1) it was 110%; in series [1] (Table 5, dihydrophloretin 0.23 mM plus retinol 6.7 μM, n 2), 55%. Also, the “% pigmentation” value in series [1] (Table 5, dihydrophloretin 0.3 mM plus retinol 6.7 μM, n 1) came out at 34%. In the series with Melanoma cells, the cell viability entry is on record as “No adverse effects”. Moreover, the viability at 100 µM in “in vitro” is 100%. For the same compound, the viability at 170 µM in the series “in vitro” amounted to 100%. Moreover, the viability at 230 µM in the series “in vitro” worked out at 100%. The compound further displayed a viability at 300 µM in the series “in vitro” of 100%.
Consider `CC1=C(/C=C/C(C)=C/C=C/C(C)=C/CO)C(C)(C)CCC1` [Trans Retinol, retinol, reference compound], for which the activity at 2 µM in series [1] (Melanocyte, 96 h, Table 4, trans retinol 2.0 μm, dihydrophloretin 0, read-out: melanin production as percentage of control) came out at 121%; in series [1] (Melanocyte, 96 h, Table 5, retinol 2.0 μM, dihydrophloretin 0.0, n 1, read-out: % pigmentation), 120%. Further, the activity at 6.7 µM in series [1] (Melanocyte, 96 h, Table 4, trans retinol 6.7 μm, dihydrophloretin 0, read-out: melanin production as percentage of control) was determined as 92.9%; in series [1] (Melanocyte, 96 h, Table 5, retinol 6.7 μM, dihydrophloretin 0.0, n 2, read-out: % pigmentation) it was 97%. The cell viability entry in the series with Melanoma cells was “No adverse effects”. In the series “in vitro”, this compound had a viability at 2 µM of 100%. The compound also had a viability at 6.7 µM in “in vitro” of 100%.
